Where two headings read alike, the source gives them in different places.
Assays:
3R Shaker K channel = 3R Shaker K channel (Drosophila melanogaster, UniProt P08510, A359R/M356R); assay: physchem; type: cell-based; settings: for pKa: Drosophila melanogaster, from pH dependence of G(V) shift; for G(V) shift: Table 1; for G(V) shift / compound-induced G(V) shift (mean±SEM): pH 7.4, Xenopus oocytes; for Effects on K channel Mean ± SEM: Table 2, K channel expressed in Xenopus oocytes; for maximum shift: dose dependence fit; for relative current amplitude: representative traces at voltage giving 10% of maximum conductance in control
In short: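 Two-electrode voltage clamp at 20-23° C. in oocytes (also CHO-K1 stable line, manual patch clamp) expressing Shaker H4 lacking N-type inactivation; 1K extracellular solution, pH 7.4, holding −80 mV, 100-ms 5-mV steps up to +70 mV. Compound-induced G(V) shift taken at 10% of control Gmax (oocytes) or as V1/2 difference (CHO-K1).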

HL-1 cells = assay: Membrane potential and firing of spontaneously beating HL-1 cells, whole-cell current clamp; type: cell-based; settings: 10 uM
Protocol: All conventional chemicals were purchased from Sigma-Aldrich (Stockholm, Sweden). The DHAA derivatives were diluted in ethanol in a 100 mM stock solution. The stock solutions were stored at −20 t for further use.
The cell culture was done according to a previous study (Claycomb et al., Proceedings of the National Academy of Sciences of the United States of America 1998; 95:2979-2984). In brief, cells were grown on gelating fibronectin coated T75 flasks. They were maintained in Claycomb Medium which was supplemented with 10% fetal bovine serum, 2 mM L-glutamine, 0.1 mM noradrenaline, and 100 U/ml, 100 μg/ml penicillin-streptomycin. Enzymatic dissociation with 0.05% trypsin-EDTA was done after full confluence. Isolated cells were plated on fibronectin-gelatin coated plastic coverslips and used for recording.
Whole-cell current-clamp recordings were done on confluent cells at 35±1° C., using an Axopatch 200B amplifier (Molecular Devices, Sunnyvale, Calif.). Patch pipettes were fabricated from borosilicate capillary glass on a vertical pipette puller and had resistances of 3-5 MO. Data were stored on a computer through Digidata 1440A interface (Molecular Devices), and was analyzed with pCLAMP software (version 10.1, Molecular Devices). The bath solution contained the following (in mM): 140 NaCl, 5.4 KCl, 1 MgCl2, 1.8 CaCl2, 10 HEPES, and 10 glucose (pH adjusted to 7.4 with NaOH). The micropipettes were filled with a solution containing (in mM): 130 K-gluconate, 9 KCl, 8 NaCl, 1 MgCl2, 10 EGTA, 10 HEPES, and 3 Na2ATP (pH adjusted to 7.3 with KOH).

Chain of 3R Shaker K channel (P08510 whole entry M356R/A359R): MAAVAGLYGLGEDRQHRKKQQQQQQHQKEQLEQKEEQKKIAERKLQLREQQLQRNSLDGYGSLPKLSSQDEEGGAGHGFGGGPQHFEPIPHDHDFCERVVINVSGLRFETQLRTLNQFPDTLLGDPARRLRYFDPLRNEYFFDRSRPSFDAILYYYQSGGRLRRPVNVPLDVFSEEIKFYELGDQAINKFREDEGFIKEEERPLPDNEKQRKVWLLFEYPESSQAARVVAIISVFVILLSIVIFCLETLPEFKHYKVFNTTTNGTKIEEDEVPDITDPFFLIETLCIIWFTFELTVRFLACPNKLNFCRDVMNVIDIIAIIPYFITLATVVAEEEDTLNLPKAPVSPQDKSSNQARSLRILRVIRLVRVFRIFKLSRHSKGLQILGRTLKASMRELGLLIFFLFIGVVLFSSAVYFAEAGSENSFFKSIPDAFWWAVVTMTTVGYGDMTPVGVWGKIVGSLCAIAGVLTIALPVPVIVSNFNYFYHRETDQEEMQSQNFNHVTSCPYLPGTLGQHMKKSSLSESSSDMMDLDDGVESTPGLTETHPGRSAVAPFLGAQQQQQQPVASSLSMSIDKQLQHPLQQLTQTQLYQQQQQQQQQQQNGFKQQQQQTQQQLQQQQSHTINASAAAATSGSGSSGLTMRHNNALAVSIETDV

Row | Structure (SMILES) | increase in G(V) shift relative to DHAA (ΔVc7, ΔVhalo, ΔVtot) (3R Shaker K channel; 100 μM, pH 7.4) [mV] | pKa (3R Shaker K channel; 100 μM) | G(V) shift (3R Shaker K channel; 100 μM) [mV] | Effects on K channel Mean ± SEM (3R Shaker K channel) [mV] | factor of increase of the G(V) shift by bromination of C12 with methyloxime at C7 (3R Shaker K channel; Wu32 versus Wu36, 100 μM, pH 7.4) | Kd (3R Shaker K channel; c1/2 of dose dependence of G(V) shift (Eq. 3), pH 7.4, read-out: Kd-value) [µM] | maximum shift (3R Shaker K channel; pH 7.4) [mV] | shift more than expected from simple addition (3R Shaker K channel; methyloxime at C7 plus Br-12, 100 μM, pH 7.4) [mV] | relative current amplitude (3R Shaker K channel; 100 μM, pH 7.4) [times] | Effects on HL-1 cells Mean (membrane potential) (HL-1 cells) [mV] | effect on membrane potential of HL-1 cells (HL-1 cells) | compound-induced G(V) shift (mean±SEM) (3R Shaker K channel; 100 μM) | effect on G(V) shift / current compared with DHAA (3R Shaker K channel; C7-modified DHAA, 100 μM, pH 7.4) | Kd (3R Shaker K channel) [µM] | ΔG(V) at 1 μM (3R Shaker K channel; 1 μM, pH 7.4) [mV] | ΔG(V) of representative G(V) curves (single examples) (3R Shaker K channel; 100 μM, pH 7.4, same cells as representative traces) [mV]
1 | CO/N=C1\CC2[C@](C)(C(=O)O)CCC[C@]2(C)c2cc(Br)c(C(C)C)cc21 (stereo partly drawn) [Wu32, (1R,4aS,E)-6-bromo-7-isopropyl-9-(methoxyimino)-1,4a-dimethyl-1,2,3,4,4a,9,10,10a-octahydrophenanthrene-1-carboxylic acid] | −18.5 | 5.8 | −30.0 | −30.0 ± 1.8 | 2.5 | 37 | −41 | −15.5 | 10.8 | −3.6 | intermediate effect on the HL-1 cells |  |  |  |  | 
2 | CC(C)c1ccc2c(c1)C(C(=O)O)CC1[C@](C)(C(=O)O)CCC[C@]21C (stereo partly drawn) [Wu35] |  |  | −1.3 | −1.2 ± 0.6 |  |  |  |  | 1.3 | 1.5 | no effect on the HL-1 cells | no effect on the K channel | clearly reduced the current increase |  |  | 
3 | C[C@@]1(C(=O)O)CCC[C@]2(C)c3cc(Cl)c(Cl)c(Cl)c3CCC12 (stereo partly drawn) [Wu50, (1R,4aS)-6,7,8-trichloro-1,4a-dimethyl-1,2,3,4,4a,9,10,10a-octahydrophenanthrene-1-carboxylic acid] |  | 6.5 | −31.6 | −31.6 ± 2.1 |  |  | −46 |  |  | −5.5 |  | −31.6±2.1 mV |  | 37 | −1.3±0.3 | −32.6

From patent US20180193294A1, “Dehydroabietic acid (DHAA) derivatives for use as ion channel openers” (priority 2015, published 2018)
